The values that follow are results of earlier work, collected in patent US11801302B2, “Formulations and uses thereof” (priority 2020, dated 2023).

“Also recorded” adds a separate entry of the source.

For one data set, the system named is cancer. The settings on record: in vitro and in vivo.
For data set [1] the following is noted: compared with other vitamin K homologs.
In the next data set the test system is bone. The settings on record: in vivo.
In data set [2] the test system is hyperactivity induced by MK-801. The settings on record: in vivo.
Data set [3] concerns inflammatory markers PPARγ and TNFα. The conditions noted are these: with emu oil; animal model of ulcerative colitis.
The subject of data set [4] is UV-induced hyperpigmentation of the skin. The settings on record: in vivo.
In data set [5] the test system is patients who respond with increased carboxylation of osteocalcin. The conditions noted are these: subset of patients with increased carboxylation of osteocalcin.
Data set [6] has as its system central benzodiazepine receptor.
The subject of data set [7] is skin, prostate, breast, and ovarian cancer. The conditions noted are these: preclinical models of skin.
Data set [8] relates to anger, mitochondrial function. The conditions noted are these: in vivo.
For a further data set, the system named is wound. The settings on record: setting of a wound.
Data set [9] deals with cholesterol transport-related protein (NPC1L1). The settings on record: cell model.
The next data set deals with blood pressure. The settings on record: in some cases patients no longer needing antihypertensive medications.
Data set [10] relates to atypical/precancerous stem cells. The conditions noted are these: used separately or together.
The test system of another data set is anxiety. The conditions noted are these: in vivo.
A further data set relates to diuresis. The conditions noted are these: dose-dependent; only when animals were fluid overloaded, not euvolemic.
In another data set the test system is chronic plaque psoriasis. The conditions noted are these: topical application.
The next data set deals with HDL and LDL cholesterol. The conditions noted are these: in vivo.
Another data set deals with normal mice. The conditions noted are these: observed only at a dose of 30 mg/kg in normal mice.

As to `O=C(O)c1cc(O)c(O)c(O)c1` [Gallic Acid], in the data set on cancer, the “inhibitory properties against cancer” value is given as “Plant polyphenol with strong inhibitory”.

In the case of `CC(C)=CCC/C(C)=C/CC/C(C)=C/CC/C(C)=C/CC/C(C)=C/CC/C(C)=C/CC/C(C)=C/CC1=C(C)C(=O)c2ccccc2C1=O` [MK7], in [1], the bioavailability entry is on record as “higher bioavailability” and the half-life result is on record as “longer half-life”. The bone mineral density result in the data set on bone is reported as “other vitamin K homologs. MK7 increases”.

Turning to `C=C(C)C1CCC(C)(O)C(O)C1` (stereo not drawn) [limonene-1-2-diol], the “production of IFN-γ, IL-2, TNF-α, IL-4 and IL-13 by CD3(+) CD4(+) T cells; IFN-γ, IL-2, and TNF-α by CD3(+) CD8(+) T cells” value (from here on “production of IFN-γ, IL-2, TNF-α”) in the data set on T lymphocytes is recorded as “viability (PMID 23059811) by inhibiting”.

Take `O=c1c(O)c(-c2ccc(O)c(O)c2)oc2cc(O)cc(O)c12` [Quercetin]: the “hyperactivity induced by NMDA receptor antagonist MK-801” value in data set [2] is “transmission and alleviates the hyperactivity”.

In the case of `CC1(C)[C@@H](O[C@H]2O[C@H](C(=O)O)[C@@H](O)[C@H](O)[C@H]2O[C@@H]2O[C@H](C(=O)O)[C@@H](O)[C@H](O)[C@H]2O)CC[C@]2(C)[C@H]3C(=O)C=C4[C@@H]5C[C@@](C)(C(=O)O)CC[C@]5(C)CC[C@@]4(C)[C@]3(C)CC[C@@H]12` [glycyrrhizin], in data set [3], the “anti-inflammatory effect by modulating PPARγ and TNFα” value is given as “synergizes with emu oil to exert a stronger anti-”.

As to `CCCCC/C=C\C/C=C\CCCCCCCC(=O)O` [Linoleic acid], the “UV-induced hyperpigmentation of the skin” value in data set [4] is “shown to lighten UV-induced”.

With `CC(C)=CCC/C(C)=C/CC/C(C)=C/CC/C(C)=C/CC/C(C)=C/CC/C(C)=C/CC/C(C)=C/CC1=C(C)C(=O)c2ccccc2C1=O` [Vitamin K2 (MK7)], the “body weight, abdominal and visceral fat” value in data set [5] was “reduced body weight, abdominal and visceral”.

Regarding `O=c1cc(-c2ccc(O)cc2)oc2cc(O)cc(O)c12` [Apigenin], the “anxiolytic and mild sedative effects when flumazenil is administered first” value in [6] (benzodiazepine antagonist flumazenil) was “(PMID 7617761), an effect that is reversible”. In addition, in data set [6] (in vivo), the “effects as central benzodiazepine receptor ligand” value is “ligand with anxiolytic and slight sedative; also recorded: ligand with anxiolytic and mild sedative effects”. For the same compound, in data set [7], the antitumor effect result is “exerts an antitumor effect in preclinical models”.

With `CC(C)=CCC/C(C)=C/CO` [geraniol], in the data set on GLUT2 transporter (compared to diabetic control), the kidney glycogen content result is “release of glucose from the liver; also doubled” and the renal glucose output result is “kidney glycogen content, doubling renal glucose”. The GLUT2 transporter entry in the data set on GLUT2 transporter (geraniol from Cymbopogon martinii) was “inhibition of GLUT2 transporter by geraniol”.

For `CCCCCCCC/C=C\CCCCCCCC(=O)O` [Oleic acid (OA)], the anger entry in data set [8] is “unexpectedly has been shown to decrease anger”. Besides, the “pain and itch receptors” value with pain and itch receptors was “directly inhibits pain and itch receptors (PMID”. In the data set on wound, the “thickness of the necrotic tissue layer in the wound” value is reported as “wound healing tissue mass, while decreasing”. Moreover, in data set [9], the “expression of cholesterol transport-related protein (NPC1L1)” value was 2235880). OA has been shown to decrease. In addition, the “lipophilic penetration of skin cells” value with skin cells is recorded as “Oleic acid (OA) enhances lipophilic penetration”. In the data set on blood pressure, the blood pressure is listed as 21181463). OA has been shown to reduce blood.

`COc1cc(/C=C/C(=O)CC(=O)/C=C/c2ccc(O)c(OC)c2)ccc1O` [curcumin, diferuloylmethane]: in data set [10], the “number of atypical/precancerous stem cells” value is “reduced the number of atypical/precancerous stem cells”.

With `C=C(C)[C@H]1CC=C(C)CC1` [D-limonene], the “production of IFN-γ, IL-2, TNF-α” value in the data set on T lymphocytes is on record as “viability (PMID 23059811) by inhibiting”. In addition, the “anxiolytic properties with flumazenil” value in the data set with anxiety is “is NOT reversed by flumazenil, indicating a”. Further, in the data set on diuresis, the diuretic effect entry is reported as “more capable. D-limonene has a mild diuretic”.

As for `C=C1/C(=C\C=C2/CCC[C@]3(C)[C@@H]([C@H](C)/C=C/[C@@H](O)C4CC4)CC[C@@H]23)C[C@@H](O)C[C@@H]1O` [calcipotriene], in the data set on chronic plaque psoriasis, the chronic plaque psoriasis entry is on record as “topical application of calcipotriene improves”.

Consider `CCCCCCCCCCCCCCCCCC(=O)O` [Stearic acid], for which, in the data set on HDL and LDL cholesterol, the ““bad” cholesterol LDL” value is “cholesterol HDL while reducing the “bad””; the ““good” cholesterol HDL” value is 10945745) and can increase the “good”.

`COc1cc(CCC(C)=O)ccc1O` [zingerone]: in the data set with normal mice, the diuretic effect entry is listed as “Oil, zingerone exhibited a mild diuretic effect”.

In the case of `C=C(C)[C@@H]1CC=C(C(=O)O)CC1` [perillic acid], in the data set on T lymphocytes, the “production of IFN-γ, IL-2, TNF-α” value is reported as “viability (PMID 23059811) by inhibiting”.
